Measurements published in patent US20130344026A1, “Dimeric Smac Mimetics” (priority 2009, published 2013).

tested on: HCC461; test: cell viability assay in HCC461, compound alone; assay type: cell-based; details: HCC461, HCC461; Tables 6-9; read-out: IC50 (μM) in cell viability assay in HCC461

| IC50 | Compound |
| --- | --- |
| 0.467 µM | CCC[C@H](NC(=O)[C@H](C)NC)C(=O)N1C[C@@H](NC(=O)c2cccc(C(=O)N[C@H]3C[C@@H](C(=O)N[C@@H]4CCCc5ccccc54)N(C(=O)[C@@H](NC(=O)[C@H](C)NC)C(C)(C)C)C3)c2)C[C@H]1C(=O)N1CCCC1 [Compound 155] |
| 0.03 µM | CN[C@@H](C)C(=O)N[C@H](C(=O)N1C[C@@H](NC(=O)CC[C@@H](NC(=O)[C@H](NC(=O)[C@@H](C)NC)C(C)(C)C)C(=O)N[C@H]2CCCc3ccccc32)C[C@H]1C(=O)N[C@@H]1CCCc2ccccc21)C(C)(C)C [Compound 157] |
| 0.072 µM | CN[C@@H](C)C(=O)N[C@@H](CCC(=O)OC)C(=O)N1C[C@@H](NC(=O)c2cccc(C(=O)N[C@H]3C[C@@H](C(=O)N[C@@H]4CCCc5ccccc54)N(C(=O)[C@@H](NC(=O)[C@H](C)NC)C(C)(C)C)C3)c2)CC1C(=O)N[C@H](C)c1ccccc1 (some centres unmarked) [Compound 149] |
| > 30 µM | CN[C@@H](C)C(=O)N[C@@H](CCCCNC(=O)c1cccc(C(=O)NCCCC[C@H](NC(=O)[C@H](C)NC)C(=O)N2CCCC[C@H]2C(=O)N[C@@H]2CCCc3ccccc32)c1)C(=O)N1CCCC[C@H]1C(=O)N[C@@H]1CCCc2ccccc21 [Compound 142] |
| 29.4 µM | CN[C@@H](C)C(=O)N[C@H](C(=O)N1C[C@@H](NC(=O)CC[C@@H](NC(=O)[C@H](NC(=O)[C@@H](C)NC)C(C)C)C(=O)N[C@@H](C)C(C)C)C[C@H]1C(=O)N[C@H](C)C(C)C)C(C)(C)C [Compound 160] |
| > 30 µM | CN[C@@H](C)C(=O)N[C@@H](CCC(=O)N[C@H]1CC(C(=O)N[C@H](C)c2ccccc2)N(C(=O)[C@@H](NC(=O)[C@H](C)NC)C(C)(C)C)C1)C(=O)N[C@H](C(=O)N[C@@H](C)C(C)C)C(C)(C)C (some centres unmarked) [Compound 164] |
| 27.6 µM | CN[C@@H](C)C(=O)NC(C(=O)N1C[C@@H](NC(=O)c2cccc(C(=O)N[C@H]3C[C@@H](C(=O)N[C@H](C)c4ccccc4)N(C(=O)[C@H](CCC(=O)OC)NC(=O)[C@@H](N)CO)C3)c2)CC1C(=O)N[C@@H]1CCCc2ccccc21)C(C)(C)C (some centres unmarked) [Compound 153] |
| 0.185 µM | CN[C@@H](C)C(=O)N[C@@H](CCC(=O)O)C(=O)N1C[C@@H](NC(=O)c2cccc(C(=O)N[C@H]3C[C@@H](C(=O)N[C@@H]4CCCc5ccccc54)N(C(=O)[C@@H](NC(=O)[C@H](C)NC)C(C)(C)C)C3)c2)CC1C(=O)N[C@H](C)c1ccccc1 (some centres unmarked) [Compound 147] |

| Compound | IC50 |
| --- | --- |
| CN[C@@H](C)C(=O)N[C@H](C(=O)N1CC[C@H](NC(=O)c2cccc(C(=O)N[C@H]3C[C@@H](C(=O)N[C@@H]4CCCc5ccccc54)N(C(=O)[C@@H](NC(=O)[C@H](C)NC)C(C)(C)C)C3)c2)C1)C(C)(C)C [Compound 131] | 0.642 µM |
| CN[C@@H](C)C(=O)NC(C(=O)N1C[C@@H](NC(=O)c2cccc(C(=O)NCCCC[C@H](NC(=O)[C@H](C)NC)C(=O)NC(C(=O)N3CCCCC3)C(C)(C)C)c2)C[C@H]1C(=O)N[C@@H]1CCCc2ccccc21)C(C)(C)C (some centres unmarked) [Compound 151] | 0.297 µM |

same assay, conditions: HCC461, HCC461; Tables 15-18; read-out: IC50 (uM) in cell viability assay in HCC461

| Compound | IC50 |
| --- | --- |
| CCN[C@@H](C)C(=O)C[C@H](C(=O)N1CCC[C@H]1C(=O)N[C@@H]1CCCc2ccccc21)c1ccc(C#CCO[C@H](C)[C@H](NC(=O)[C@H](C)NC)C(=O)N2CCC[C@H]2C(=O)N[C@@H]2CCCc3ccccc32)cc1 [Compound H-1] | 0.0171 µM |
| CN[C@@H](C)C(=O)N[C@H](C(=O)N1CCC[C@H]1C(=O)N[C@H](CNC(=O)[C@H]1CC[C@@](C)(C(=O)NC[C@@H](NC(=O)[C@@H]2CCCN2C(=O)[C@@H](NC(=O)[C@H](C)NC)C(C)(C)C)c2ccccc2)C1(C)C)c1ccccc1)C(C)(C)C [Compound P4-15] | 0.085 µM |
| CN[C@@H](C)C(=O)N[C@H](C(=O)N1CCC[C@H]1C(=O)N[C@H](CNC(=O)c1cccc(C(=O)NC[C@@H](NC(=O)[C@@H]2CCCN2C(=O)[C@@H](NC(=O)[C@H](C)NC)C(C)(C)C)c2ccccc2)c1)c1ccccc1)C(C)(C)C [Compound P4-11] | 0.068 µM |

More lines, now with the values ahead:

| IC50 | Compound |
| --- | --- |
| 0.031 µM | C[C@@H](C(=O)N[C@@H](CC#CC#CC[C@H](NC(=O)[C@H](C)N(C)C(=O)C(F)(F)F)C(=O)N1CCC[C@H]1C(=O)N[C@@H]1CCCc2ccccc21)C(=O)N1CCC[C@H]1C(=O)N[C@@H]1CCCc2ccccc21)N(C)C(=O)C(F)(F)F [Compound P2-18] |
| 0.114 µM | C#CC[C@H](NC(=O)[C@H](C)NC)C(=O)N1C[C@@H](n2cc(C[C@H](NC(=O)[C@H](C)NC)C(=O)N3C[C@@H](N=[N+]=[N-])C[C@H]3C(=O)N[C@@H]3CCCc4ccccc43)nn2)C[C@H]1C(=O)N[C@@H]1CCCc2ccccc21 [Compound H-2] |
| 0.07 µM | CN[C@@H](C)C(=O)N[C@H](C(=O)N1CCC[C@H]1C(=O)NC1c2ccccc2-c2ccccc21)[C@@H](C)OCC#CC#CCO[C@H](C)[C@H](NC(=O)[C@H](C)NC)C(=O)N1CCC[C@H]1C(=O)NC1c2ccccc2-c2ccccc21 [Compound P2-15] |
| 0.055 µM | CN[C@@H](C)C(=O)N[C@@H](CCCCCC[C@H](NC(=O)[C@H](C)NC)C(=O)N1CCC[C@H]1C(=O)NC1CCCC2CCCCC21)C(=O)N1CCC[C@H]1C(=O)NC1CCCC2CCCCC21 (some centres unmarked) [Compound P2-23] |

same assay, conditions: HCC461, HCC461 cells, compound alone; read-out: IC50 (uM) in cell viability assay in HCC461

| IC50 | Compound |
| --- | --- |
| 0.036 µM | CC[C@H](C)[C@H](NC(=O)[C@H](C)NC)C(=O)N1C[C@@H](NC(=O)/C=C/C(=O)N[C@H]2C[C@@H](C(=O)N[C@H](C)c3ccccc3)N(C(=O)[C@@H](NC(=O)[C@H](C)NC)[C@@H](C)CC)C2)C[C@H]1C(=O)N[C@H](C)c1ccccc1 [Compound P3-76] |
| 0.049 µM | CN[C@@H](C)C(=O)N[C@H](C(=O)N1C[C@@H](NC(=O)c2cc(N)cc(C(=O)N[C@H]3C[C@@H](C(=O)N[C@H](C)c4ccccc4)N(C(=O)[C@@H](NC(=O)[C@H](C)NC)C4CCCCC4)C3)c2)C[C@H]1C(=O)N[C@H](C)c1ccccc1)C1CCCCC1 [Compound P3-78] |
| 0.051 µM | CN[C@@H](C)C(=O)N[C@H](C(=O)N1C[C@@H](NC(=O)c2cc(N)cc(C(=O)N[C@H]3C[C@@H](C(=O)N[C@@H]4CCCc5ccccc54)N(C(=O)[C@@H](NC(=O)[C@H](C)NC)C4CCCCC4)C3)c2)C[C@H]1C(=O)N[C@@H]1CCCc2ccccc21)C1CCCCC1 [Compound P3-54] |
| 0.077 µM | CN[C@@H](CO)C(=O)N[C@H](C(=O)N1C[C@@H](NC(=O)c2cccc(C(=O)N[C@H]3C[C@@H](C(=O)N[C@@H]4CCCc5ccccc54)N(C(=O)[C@@H](NC(=O)[C@H](CO)NC)C(C)(C)C)C3)c2)C[C@H]1C(=O)N[C@@H]1CCCc2ccccc21)C(C)(C)C [Compound P3-86] |
| 0.002 µM | CN[C@@H](C)C(=O)N[C@H](C(=O)N[C@@H](CCCCCC[C@H](NC(=O)[C@@H](NC(=O)[C@H](C)NC)C(C)(C)C)C(=O)N[C@@H]1CCCc2ccccc21)C(=O)N[C@@H]1CCCc2ccccc21)C(C)(C)C [Compound P3-65] |
| 0.002 µM | CN[C@@H](C)C(=O)N[C@H](C(=O)N1C[C@@H](NC(=O)Cc2cccc(CC(=O)N[C@H]3C[C@@H](C(=O)N[C@@H]4CCCc5ccccc54)N(C(=O)[C@@H](NC(=O)[C@H](C)NC)C(C)(C)C)C3)c2)C[C@H]1C(=O)N[C@@H]1CCCc2ccccc21)C(C)(C)C [Compound P3-19] |
| 0.075 µM | CN[C@@H](C)C(=O)N[C@H](C(=O)N1C[C@@H](NC(=O)c2cc(OC)cc(C(=O)N[C@H]3C[C@@H](C(=O)N[C@H](C)c4ccccc4)N(C(=O)[C@@H](NC(=O)[C@H](C)NC)C(C)(C)C)C3)c2)C[C@H]1C(=O)N[C@H](C)c1ccccc1)C(C)(C)C [Compound P3-73] |
| 0.04 µM | CN[C@@H](C)C(=O)N[C@H](C(=O)N1C[C@@H](NC(=O)c2cc(N)cc(C(=O)N[C@H]3C[C@@H](C(=O)N[C@H](C)C4CCCCC4)N(C(=O)[C@@H](NC(=O)[C@H](C)NC)C(C)(C)C)C3)c2)C[C@H]1C(=O)N[C@H](C)C1CCCCC1)C(C)(C)C [Compound P3-44] |
| 0.07 µM | CN[C@@H](C)C(=O)N[C@H](C(=O)N1C[C@@H](NC(=O)CCCC(=O)N[C@H]2C[C@@H](C(=O)NC3c4ccccc4-c4ccccc43)N(C(=O)[C@@H](NC(=O)[C@H](C)NC)C(C)(C)C)C2)C[C@H]1C(=O)NC1c2ccccc2-c2ccccc21)C(C)(C)C [Compound P3-3] |
| 0.028 µM | CN[C@@H](C)C(=O)N[C@H](C(=O)N1C[C@@H](n2cc(CCCc3cn([C@H]4C[C@@H](C(=O)N[C@H](C)c5ccccc5)N(C(=O)[C@@H](NC(=O)[C@H](C)NC)C(C)(C)C)C4)nn3)nn2)C[C@H]1C(=O)N[C@H](C)c1ccccc1)C(C)(C)C [Compound P3-87] |
| 0.023 µM | C#CC[C@H](NC(=O)[C@H](C)NC)C(=O)N1C[C@@H](NC(=O)c2cnc(C(=O)N[C@H]3C[C@@H](C(=O)N[C@@H]4CCCc5ccccc54)N(C(=O)[C@H](CC#C)NC(=O)[C@H](C)NC)C3)cn2)C[C@H]1C(=O)N[C@@H]1CCCc2ccccc21 [Compound P3-14] |

same assay, conditions: HCC461; Tables 15-18; read-out: IC50 (uM) in cell viability assay in HCC461

| Compound | IC50 |
| --- | --- |
| CC[C@H](NC)C(=O)N[C@@H](CC#CC#CC[C@H](NC(=O)[C@H](CC)NC)C(=O)N1CCC[C@H]1C(=O)N[C@@H]1CCCc2ccccc21)C(=O)N1CCC[C@H]1C(=O)N[C@@H]1CCCc2ccccc21 [Compound P2-8] | 0.009 µM |
| CN[C@@H](C)C(=O)N[C@@H](CC#CC#CC[C@H](NC(=O)[C@H](C)NC)C(=O)N1C[C@@H](NC(C)c2ccccc2)C[C@H]1C(=O)N[C@@H]1CCCc2ccccc21)C(=O)N1C[C@@H](NC(=O)c2ccccc2)C[C@H]1C(=O)N[C@@H]1CCCc2ccccc21 (some centres unmarked) [Compound P2-10] | 0.109 µM |

same assay, conditions: HCC461 cells, compound alone; read-out: IC50 (uM) in cell viability assay in HCC461

| IC50 | Compound |
| --- | --- |
| 0.211 µM | CN[C@@H](C)C(=O)N[C@H](C(=O)N1C[C@@H](NC(=O)c2cccc(C(=O)N[C@H]3C[C@@H](C(=O)NC4CCCC5CCCCC54)N(C(=O)[C@@H](NC(=O)[C@H](C)NC)C(C)(C)C)C3)c2)C[C@H]1C(=O)NC1CCCC2CCCCC21)C(C)(C)C (some centres unmarked) [Compound P3-58] |
| 0.002 µM | CN[C@@H](C)C(=O)N[C@H](C(=O)N1C[C@@H](NC(=O)C2CCCC(C(=O)N[C@H]3C[C@@H](C(=O)NC4CCCc5ccccc54)N(C(=O)[C@@H](NC(=O)[C@H](C)NC)C(C)(C)C)C3)C2)CC1C(=O)N[C@@H]1CCCc2ccccc21)C(C)(C)C (some centres unmarked) [Compound P3-17] |
